Activity calls are given as the source filed them. Rule as the data show it, for most assays here: actives have a measured EC50 and inactives only a lower limit.
Test system: not listed separately
Assay: Trypanosoma cruzi growth suppression in host cells – NIH3T3 host cells, beta-gal luminescence, confirmation (AID 2044);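 also: intracellular parasites grown in NIH/3T3 mouse fibroblasts as host cells; luminescent beta-galactosidase reporter signal from transgenic T. cruzi replicating inside host cells; inhibitors lower the luminescence signal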
Format: functional, cell-based
Conditions: not given

Structure (SMILES) | EC50
COc1cc(C)c(N)cc1C(C)C | 16.9 µM (active)
CC1CCCCN1S(=O)(=O)c1ccc(S(=O)(=O)N(CC(=O)Nc2ccccc2)Cc2cccs2)cc1 (stereo not drawn) | 1.7 µM (active)
O=C(CN(c1ccc(Cl)cc1)S(=O)(=O)c1ccc(Cl)c([N+](=O)[O-])c1)NCCc1ccccc1 | 3.56 µM (active)

Biological target: T1, RNA-binding protein pos-1 (Caenorhabditis elegans, UniProt G5EF15)
T1 sequence (G5EF15 whole entry): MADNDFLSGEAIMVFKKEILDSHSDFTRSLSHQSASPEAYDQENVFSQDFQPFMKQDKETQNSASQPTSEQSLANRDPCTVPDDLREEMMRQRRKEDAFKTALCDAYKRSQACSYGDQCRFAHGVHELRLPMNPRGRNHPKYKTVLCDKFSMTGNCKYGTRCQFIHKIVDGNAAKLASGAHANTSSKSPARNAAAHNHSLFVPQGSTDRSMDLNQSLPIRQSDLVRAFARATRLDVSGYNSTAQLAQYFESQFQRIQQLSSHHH
Assay: disruptors of C. elegans POS-1 RNA interaction – biochemical, fluorescence polarization, dose response (AID 1964);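 also: purified POS-1 fused to maltose binding protein made in E. coli; potency of compounds blocking POS-1 binding to fluorescent RNA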
Conditions: not given

Structure (SMILES) | EC50
CCCCC1=CC2=CC(=O)C(C)(OC(=O)c3cnc4ccccc4n3)C(=O)C2=CO1 (stereo not drawn) | 19.9 µM (active)
C/C(=N\C1CCCC1)c1c(C)[nH]n(-c2nc3ccccc3s2)c1=O | > 300 µM (not active)
N#CC(C#N)=Cc1ccc(-c2ccc(S(=O)(=O)NC(=N)N)cc2)o1 | > 300 µM (not active)
CC(=O)N(C)c1ccc(/N=N/c2c(C)[nH]n(C(N)=S)c2=O)cc1 | > 300 µM (not active)
CC(=O)NCCNc1ccc([N+](=O)[O-])cc1C#N | > 300 µM (not active)
O=CN/N=C/c1c(O)ccc2ccccc12 | > 300 µM (not active)
Oc1c(/C=N/c2ccccc2Cl)[nH]c2ccccc12 | > 300 µM (not active)
CCOC(=O)c1ccc(-n2c(CCC(=O)O)ccc2-c2ccccc2)cc1 | > 300 µM (not active)
COc1cccc(C2(O)CCN(CC(=O)Nc3nc(C)cs3)CC2)c1 | > 300 µM (not active)
N#CC1=C(N)C(C#N)(C#N)C(c2cccnc2)C2CCCC=C12 (stereo not drawn) | 22.2 µM (active)
Cc1onc(-c2c(F)cccc2Cl)c1C(=O)N1CCCc2ccccc21 | > 300 µM (not active)

Biological target: T2, Rac GTPase-activating protein 1 (Homo sapiens, UniProt Q9H0H5)
T2 sequence (Q9H0H5 whole entry): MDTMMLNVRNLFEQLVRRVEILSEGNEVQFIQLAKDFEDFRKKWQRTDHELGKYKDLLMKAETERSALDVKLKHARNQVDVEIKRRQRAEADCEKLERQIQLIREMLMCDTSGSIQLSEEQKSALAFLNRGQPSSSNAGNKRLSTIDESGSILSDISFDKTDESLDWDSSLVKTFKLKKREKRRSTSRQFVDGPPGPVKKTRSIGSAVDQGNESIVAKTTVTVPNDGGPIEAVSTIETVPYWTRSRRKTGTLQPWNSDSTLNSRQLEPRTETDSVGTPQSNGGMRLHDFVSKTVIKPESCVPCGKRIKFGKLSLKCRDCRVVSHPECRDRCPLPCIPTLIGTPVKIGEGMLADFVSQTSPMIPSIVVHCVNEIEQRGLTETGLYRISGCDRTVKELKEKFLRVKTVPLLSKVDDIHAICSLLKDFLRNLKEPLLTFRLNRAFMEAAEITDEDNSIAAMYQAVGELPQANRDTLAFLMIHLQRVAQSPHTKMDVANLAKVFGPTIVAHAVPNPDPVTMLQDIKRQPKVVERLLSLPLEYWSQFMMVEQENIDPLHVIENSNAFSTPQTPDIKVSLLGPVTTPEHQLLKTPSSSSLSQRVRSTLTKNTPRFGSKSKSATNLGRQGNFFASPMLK
Assay: blockers of MgcRacGAP-driven Rac1 GTP hydrolysis – biochemical, ADP Hunter fluorescence, primary and confirmatory, confirmation (AID 624330)
Format: functional
Conditions: not given

Structure (SMILES) | IC50
COc1cc(C)c(N)cc1C(C)C | 113 µM (active)
CNc1nc2c3ccccc3n(C(C)=O)c2s1 | 184 µM (active)

Test system: H4
Assay: Luminescence Cell-Based Dose Response HTS to Identify Activators of 5'UTR Stem-Loop Driven Prion Protein mRNA Translation in H4 Neuroglioblastoma Cells. [Related pubchem assays: 1829 (Project Summary), 1814 (Primary HTS)]
Format: functional
Conditions: Homo sapiens

Structure (SMILES) | EC50
O=C(c1ccc(Cl)s1)N1CCc2ccccc21 | 56.2 µM (inconclusive)

Test system: not listed separately
Assay: Luminescence Cell-Based Dose Response HTS to Identify Activators of Luciferase Translation or Activity in H4 […] Cells. [Related pubchem assays: 1829 (Project Summary), 1814 (Primary HTS)]
Format: functional
Conditions: not given

Structure (SMILES) | EC50
O=C(c1ccc(Cl)s1)N1CCc2ccccc21 | 0.124 µM (active)

Test system: not listed separately
Assay: Luminescence Cell-Based Dose Response HTS to Identify Inhibitors of 5'UTR Stem-Loop Driven Prion Protein mRNA Translation in H4 Neuroglioblastoma Cells. [Related pubchem assays: 1827 (Project Summary), 1813 (Primary HTS)]
Format: functional
Conditions: not given

Structure (SMILES) | EC50
Cc1nc2cc(-c3cccc(F)c3)nn2c(C)c1CCC(=O)N1CCN(c2ccccn2)CC1 | 14.1 µM (active)
CC(C)(C)Nc1nc(N2CCCC2)nc(N2CCCC2)n1 | 19.6 µM (active)
O=C(CN(c1ccc(Cl)cc1)S(=O)(=O)c1ccc(Cl)c([N+](=O)[O-])c1)NCCc1ccccc1 | 8.52 µM (active)

Biological target: Cytochrome P450 2C9 (Homo sapiens, UniProt P11712)
Conditions: not given

Chain of Cytochrome P450 2C9 (P11712 whole entry): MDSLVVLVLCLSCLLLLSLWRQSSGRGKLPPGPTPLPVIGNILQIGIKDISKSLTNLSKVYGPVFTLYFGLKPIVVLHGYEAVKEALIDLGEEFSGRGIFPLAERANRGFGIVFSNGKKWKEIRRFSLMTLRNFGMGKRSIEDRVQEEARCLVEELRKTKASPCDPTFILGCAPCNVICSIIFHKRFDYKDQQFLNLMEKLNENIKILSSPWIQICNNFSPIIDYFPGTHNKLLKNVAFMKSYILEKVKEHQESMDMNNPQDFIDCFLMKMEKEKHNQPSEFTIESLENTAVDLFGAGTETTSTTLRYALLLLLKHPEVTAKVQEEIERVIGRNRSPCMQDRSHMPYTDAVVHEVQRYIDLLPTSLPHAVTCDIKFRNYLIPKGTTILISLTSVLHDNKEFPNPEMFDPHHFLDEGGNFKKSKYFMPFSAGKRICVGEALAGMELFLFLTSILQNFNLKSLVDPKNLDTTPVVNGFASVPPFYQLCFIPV

Structure (SMILES) | AC50
CC(C)(C)Nc1nc(N2CCCC2)nc(N2CCCC2)n1 | 5.01 µM (inconclusive)

Biological target: Luciferin 4-monooxygenase (Photinus pyralis, UniProt P08659)
Assay: inhibition of purified Photinus pyralis luciferase – biochemical, luminescence, dose response (AID 1891)
Conditions: not given

Chain of Luciferin 4-monooxygenase (P08659 whole entry): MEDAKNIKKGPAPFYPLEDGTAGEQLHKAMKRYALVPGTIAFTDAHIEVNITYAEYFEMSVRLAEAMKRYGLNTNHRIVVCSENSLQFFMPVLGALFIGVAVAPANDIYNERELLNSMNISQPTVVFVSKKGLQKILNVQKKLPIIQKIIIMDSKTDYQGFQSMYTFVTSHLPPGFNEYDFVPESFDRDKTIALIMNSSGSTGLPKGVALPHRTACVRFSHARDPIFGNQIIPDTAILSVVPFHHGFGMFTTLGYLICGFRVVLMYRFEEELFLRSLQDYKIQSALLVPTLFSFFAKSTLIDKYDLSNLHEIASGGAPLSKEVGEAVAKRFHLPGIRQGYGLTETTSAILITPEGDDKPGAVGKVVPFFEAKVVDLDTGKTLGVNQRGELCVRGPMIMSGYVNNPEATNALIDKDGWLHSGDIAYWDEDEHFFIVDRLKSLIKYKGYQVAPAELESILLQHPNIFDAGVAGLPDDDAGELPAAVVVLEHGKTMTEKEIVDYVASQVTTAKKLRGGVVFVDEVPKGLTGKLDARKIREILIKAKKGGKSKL

Structure (SMILES) | EC50
CNc1nc2c3ccccc3n(C(C)=O)c2s1 | > 112 µM (not active)
CC1CCCCN1S(=O)(=O)c1ccc(S(=O)(=O)N(CC(=O)Nc2ccccc2)Cc2cccs2)cc1 (stereo not drawn) | > 112 µM (not active)

Biological target: FAD-linked sulfhydryl oxidase ALR (Homo sapiens, UniProt P55789)
Assay: ALR-catalysed DTT oxidation blockers – biochemical, H2O2 detection, luminescence, cherry-pick, dose response (AID 493248)
Conditions: not given

Chain of FAD-linked sulfhydryl oxidase ALR (P55789 whole entry): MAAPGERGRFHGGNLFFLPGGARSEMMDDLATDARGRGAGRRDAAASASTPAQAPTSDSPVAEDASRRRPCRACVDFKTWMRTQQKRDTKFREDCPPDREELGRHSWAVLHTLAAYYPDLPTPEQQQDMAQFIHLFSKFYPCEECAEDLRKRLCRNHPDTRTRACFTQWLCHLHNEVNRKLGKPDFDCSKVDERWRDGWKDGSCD

Structure (SMILES) | AC50
COc1cc(C)c(N)cc1C(C)C | 0.027 µM (active)
C/C(=N\C1CCCC1)c1c(C)[nH]n(-c2nc3ccccc3s2)c1=O | 1.24 µM (active)

Test system: not listed separately
Assay: Luminescence Cell-Based Dose Confirmation HTS to Identify Inhibitors of Platelet Dense Granule Release. [Related pubchem assays: 1663 (Primary HTS), 1678 (Summary of Project)]
Format: functional
Conditions: not given

Structure (SMILES) | EC50
CNc1nc2c3ccccc3n(C(C)=O)c2s1 | > 112 µM (not active)
CC1CCCCN1S(=O)(=O)c1ccc(S(=O)(=O)N(CC(=O)Nc2ccccc2)Cc2cccs2)cc1 (stereo not drawn) | > 112 µM (not active)

Test system: not listed separately
Assay: alpha-synuclein stem-loop luciferase translation blockers – H4 neuroglioma cells, luminescence, confirmation (AID 1988)
Format: functional, cell-based
Conditions: not given

Structure (SMILES) | EC50
Cc1nc2cc(-c3cccc(F)c3)nn2c(C)c1CCC(=O)N1CCN(c2ccccn2)CC1 | 12.4 µM (active)
CC(C)(C)Nc1nc(N2CCCC2)nc(N2CCCC2)n1 | 16.7 µM (active)
O=C(CN(c1ccc(Cl)cc1)S(=O)(=O)c1ccc(Cl)c([N+](=O)[O-])c1)NCCc1ccccc1 | 9.06 µM (active)

Test system: not listed separately
Assay: luciferase reporter signal suppression in cells – H4 neuroglioma cells, luminescence, dose response (AID 1990)
Format: functional, cell-based
Conditions: not given

Structure (SMILES) | EC50
Cc1nc2cc(-c3cccc(F)c3)nn2c(C)c1CCC(=O)N1CCN(c2ccccn2)CC1 | 11.9 µM (active)
CC(C)(C)Nc1nc(N2CCCC2)nc(N2CCCC2)n1 | 16.7 µM (active)
O=C(CN(c1ccc(Cl)cc1)S(=O)(=O)c1ccc(Cl)c([N+](=O)[O-])c1)NCCc1ccccc1 | > 120 µM (not active)

Test system: not listed separately
Assay: NIH3T3 cell viability loss – ATP luminescence, mouse fibroblasts, counter-screen, dose response (AID 2010);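 also: cells exposed to compound for about 90 hours before reading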
Format: functional, cell-based
Conditions: not given

Structure (SMILES) | EC50
COc1cc(C)c(N)cc1C(C)C | > 60 µM (not active)
CC1CCCCN1S(=O)(=O)c1ccc(S(=O)(=O)N(CC(=O)Nc2ccccc2)Cc2cccs2)cc1 (stereo not drawn) | > 60 µM (inconclusive)
O=C(CN(c1ccc(Cl)cc1)S(=O)(=O)c1ccc(Cl)c([N+](=O)[O-])c1)NCCc1ccccc1 | > 60 µM (not active)

Biological target: T3, Zinc finger protein mex-5 (Caenorhabditis elegans, UniProt Q9XUB2)
T3 sequence (Q9XUB2 whole entry): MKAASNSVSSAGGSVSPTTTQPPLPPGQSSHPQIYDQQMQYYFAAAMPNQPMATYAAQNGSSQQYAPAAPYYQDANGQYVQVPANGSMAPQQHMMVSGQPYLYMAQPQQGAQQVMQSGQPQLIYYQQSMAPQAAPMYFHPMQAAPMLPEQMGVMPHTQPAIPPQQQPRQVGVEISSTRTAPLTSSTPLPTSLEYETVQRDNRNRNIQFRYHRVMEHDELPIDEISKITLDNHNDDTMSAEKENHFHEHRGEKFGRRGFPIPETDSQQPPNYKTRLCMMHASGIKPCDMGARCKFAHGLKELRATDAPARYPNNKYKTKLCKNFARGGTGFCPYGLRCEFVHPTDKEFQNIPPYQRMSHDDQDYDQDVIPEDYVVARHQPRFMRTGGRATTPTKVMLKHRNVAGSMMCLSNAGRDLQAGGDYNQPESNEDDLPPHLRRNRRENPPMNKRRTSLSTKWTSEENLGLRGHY
Assay: potency of MEX-5 RNA-binding blockers – biochemical, C. elegans, fluorescence polarization, dose response (AID 1960)
Conditions: not given

Structure (SMILES) | EC50
CCCCC1=CC2=CC(=O)C(C)(OC(=O)c3cnc4ccccc4n3)C(=O)C2=CO1 (stereo not drawn) | 19 µM (active)
C/C(=N\C1CCCC1)c1c(C)[nH]n(-c2nc3ccccc3s2)c1=O | > 300 µM (not active)
N#CC(C#N)=Cc1ccc(-c2ccc(S(=O)(=O)NC(=N)N)cc2)o1 | 236 µM (active)
CC(=O)N(C)c1ccc(/N=N/c2c(C)[nH]n(C(N)=S)c2=O)cc1 | 24.2 µM (active)
CC(=O)NCCNc1ccc([N+](=O)[O-])cc1C#N | > 300 µM (not active)
O=CN/N=C/c1c(O)ccc2ccccc12 | 5.35 µM (active)
Oc1c(/C=N/c2ccccc2Cl)[nH]c2ccccc12 | > 300 µM (not active)
CCOC(=O)c1ccc(-n2c(CCC(=O)O)ccc2-c2ccccc2)cc1 | > 300 µM (not active)
COc1cccc(C2(O)CCN(CC(=O)Nc3nc(C)cs3)CC2)c1 | > 300 µM (not active)
N#CC1=C(N)C(C#N)(C#N)C(c2cccnc2)C2CCCC=C12 (stereo not drawn) | 17.5 µM (active)
Cc1onc(-c2c(F)cccc2Cl)c1C(=O)N1CCCc2ccccc21 | > 300 µM (not active)
